Test results taken from US20180153870A1, “BIPERIDEN FOR TREATING CANCER” (Universitätsklinikum Hamburg-Eppendorf, priority 2015, published 2018).

Columns and labels:
HPDE = experiment: MTT proliferation assay, HPDE reference cell line; format: cell-based, human; conditions: for reaction of proliferation: mepazine, other doses of biperiden or a combination of mepazine and biperiden
Procedure: The cell lines used for the proliferation assays were cultured in different media. The cell lines Pan-1, Panc-2 and BxPC3, which have been derived from the human ductal pancreatic adenocarcinoma (PDAC), were cultured in Dulbecco's modified Eagle medium (DMEM) (Sigma), that was supplemented with 1% penicillin/streptomycin (Life technologies/GIBCO 15140-122) and 10% fetal bovine serum (Life technologies/GIBCO 100500-064). The cell line L3.6pl was cultured in RPMI 1640 medium (Life technologies/GIBCO 72400-21) that was supplemented with 1% penicillin/streptomycin and 10% fetal bovine serum. A sub-clone of the cell line L3.6pl, that was designated L3.6pl res, was resistant to gemcitabine and was also cultured in RPMI 1640 medium (Life technologies/GIBCO 72400-21) that was supplemented with 1% penicillin/streptomycin, 10% fetal bovine serum and 2 μM gemcitabine (GEMZAR, Lily). The human immortalized, non-malignant cell line of the ductal pancreatic epithelium (HPDE) was cultured in keratinocyte-SFM (Life technologies/GIBCO) that was supplemented with 10% fetal bovine serum, 1% penicillin/streptomycin and 1% epidermal growth factor (EGF).
The proliferation rates of the cell lines were determined after stimulation with (i) biperiden, (ii) mepazine, and (iii) stimulation with both active ingredients. For this purpose, cells were seeded in plates with 96 wells at 5000 cells per well and incubated overnight at 37° C. and 5% CO2. Next morning, the blanket values were measured at 490 nm in an ELISA reader (FLUOstar Omega, BMG LABTECH) after the addition of 100 μL medium and 20 μL MTT substrate (CellTiter 96 AQueous One Solution Cell Proliferation Assay, Promega). Biperiden was added in increasing concentrations (3.71 μg/ml, 11.1 μg/ml und 29.6 μg/ml) in the form of solutions of biperiden hydrochloride (B5311 SIGMA-Aldrich, USA) and DMSO. […] The ex-tinction was measured every 24 hours during a period of 72 hours.
(§1) The normal distribution of the results was analyzed by Kolgomorov-Smirnov test and Shapiro-Wilk test. Non-parametric variables were analyzed using the Mann-Whitney-U test. […]

human Panc-1 tumor cells = experiment: Mouse xenograft model with subcutaneous Panc-1 tumor cells; format: in vivo, pfp−/−/rag2−/− double knockout mice; conditions: for size of the subcutaneous tumor: daily i.p. treatment, 16 mg/kg mepazine; for size of the subcutaneous tumor / tumor sizes compared to the control groups: 10 mg/kg biperiden; for tumor sizes compared to the control groups: daily i.p., 16 mg/kg mepazine or both
Source text: For the mouse xenograft model pfp−/−/rag2−/− double knockout mice were used. […] Owing to the inactivated rag2 gene, the mouse lacks mature T or B lymphocytes. The mouse model was developed by the Taconic Institute (Quality Laboratory Animals and Services for Research, DK8680 Ry, Taconic Europe, Denmark) by crossing the PFPN12 mouse model with the RAGN12 mouse model. This model was back crossed over 12 generations (N12) with C57BL/6NTac, and the colony was maintained by homozygous pairing. The mouse model was used in the course of the present invention with PDAC cells of the cell line Panc-1, which were administered subcutaneously. 12 days after subcutaneous injection of 10^6 human Panc-1 tumor cells, the mice were treated daily either with 16 mg/kg mepazine i.p. (n=10), 10 mg/kg biperiden (n=10) i.p. or with a combination of both active ingredients, that is with 16 mg/kg mepazine and 10 mg/kg biperiden (n=10) i.p. The control group (n=10) was not treated. The daily treatment was performed under identical, standardized conditions. The same 3-days-cycle was used over the complete period of the study: day one comprised the injection of the medication and the determination of the bodyweight by weighing. Day 2 comprised the injection of the medication and the determination of the subcutaneous tumor growth with a caliper. Day 3 comprised the injection of the medication and neuroscoring. […] After euthanizing, the subcutaneous tumors were removed from the mice. Prior to the surgery, the body of the mouse was disinfected with ethanol. The skin above the tumor was carefully incised, and the tumor was surgically removed from the adjacent tissue. After removal, the tumor was weighed and measured. For evaluation only mice were used which had developed a tumor. […] The volumes of the subcutaneous tumors were measured with a caliper after removal and calculated using the formula length× width^2 as described in [8]. […] The average tumor size in the control group was 729.33 mm^3±186.25 mm^3 compared to 130.43 mm^3±63.96 mm^3 in the group that was treated with mepazine (p=0.002; one-sided Fisher's exact test).

[1] = tested on: pancreatic cancer cell lines; experiment: MTT proliferation assay, all pancreatic cancer cell lines; format: cell-based, human; conditions: in the presence of biperiden, mepazine or a combination
Procedure: (§2) The cell lines used for the proliferation assays were cultured in different media. The cell lines Pan-1, Panc-2 and BxPC3, which have been derived from the human ductal pancreatic adenocarcinoma (PDAC), were cultured in Dulbecco's modified Eagle medium (DMEM) (Sigma), that was supplemented with 1% penicillin/streptomycin (Life technologies/GIBCO 15140-122) and 10% fetal bovine serum (Life technologies/GIBCO 100500-064). The cell line L3.6pl was cultured in RPMI 1640 medium (Life technologies/GIBCO 72400-21) that was supplemented with 1% penicillin/streptomycin and 10% fetal bovine serum. […]
(§3) The proliferation rates of the cell lines were determined after stimulation with (i) biperiden, (ii) mepazine, and (iii) stimulation with both active ingredients. […] Next morning, the blanket values were measured at 490 nm in an ELISA reader (FLUOstar Omega, BMG LABTECH) after the addition of 100 μL medium and 20 μL MTT substrate (CellTiter 96 AQueous One Solution Cell Proliferation Assay, Promega). […] The ex-tinction was measured every 24 hours during a period of 72 hours.
as §1

L3.6pl wt = experiment: MTT proliferation assay, L3.6pl wt; format: cell-based, human
Procedure: as §2, §3, §1

[2] = tested on: lung carcinoma cell lines A549 und H1299; experiment: MTT proliferation assay, lung carcinoma cell lines; format: cell-based, human; conditions: concentrations as in Example 1
Procedure: (§4) The proliferation rates of the cell lines were determined after stimulation with (i) biperiden, (ii) mepazine, and (iii) stimulation with both active ingredients. For this purpose, cells were seeded in plates with 96 wells at 5000 cells per well and incubated overnight at 37° C. and 5% CO2. Next morning, the blanket values were measured at 490 nm in an ELISA reader (FLUOstar Omega, BMG LABTECH) after the addition of 100 μL medium and 20 μL MTT substrate (CellTiter 96 AQueous One Solution Cell Proliferation Assay, Promega). Biperiden was added in increasing concentrations (3.71 μg/ml, 11.1 μg/ml und 29.6 μg/ml) in the form of solutions of biperiden hydrochloride (B5311 SIGMA-Aldrich, USA) and DMSO. Mepazine was added in increasing concentrations (15 μM and 25 μM) in the form of solutions of mepazine hydrochloride (MALT1 Inhibitor II, Calbiochem Merck, Millipore Billerica, USA). Combinations of both mepazine and biperiden were added in the following concentrations: 15 μM mepazine+3.71 μg/ml biperiden; 25 μM mepazine+3.71 μg/ml biperiden. The ex-tinction was measured every 24 hours during a period of 72 hours. […]

[3] = tested on: esophageal carcinoma cell lines OE19, OE33 und KYSE 140; experiment: MTT proliferation assay, esophageal carcinoma cell lines; format: cell-based, human; conditions: OE19, OE33, KYSE 140; concentrations as in Example 1
Procedure: as §4

| SMILES | proliferation (HPDE; 11.1 μg/ml biperiden) | reaction of proliferation (HPDE) | size of the subcutaneous tumor (human Panc-1 tumor cells; Panc-1 xenograft) | tumor sizes compared to the control groups (human Panc-1 tumor cells; Panc-1 xenograft) | compatibility of administration (human Panc-1 tumor cells; mice, 10 mg/kg biperiden i.p. daily) | motor activity compared to mice that received mepazine or no medication (human Panc-1 tumor cells; mice, 10 mg/kg biperiden i.p. or 16 mg/kg mepazine and 10 mg/kg biperiden i.p., daily) | reduction in the proliferation rate [1] | reduction in the proliferation rate (L3.6pl wt; 29.7 μg/ml biperiden, p=0.02) | proliferation of lung carcinoma cell lines [2] | proliferation of esophageal carcinoma cell lines [3] | average tumor size (human Panc-1 tumor cells; Panc-1 xenograft, 16 mg/kg mepazine i.p. daily, ±63.96 mm^3, control 729.33 mm^3±186.25 mm^3, p=0.002) | reduction in the proliferation rate (L3.6pl wt; 25 μM mepazine, p=0.004) |
| --- | --- | --- | --- | --- | --- | --- | --- | --- | --- | --- | --- | --- |
| OC(CCN1CCCCC1)(c1ccccc1)C1CC2C=CC1C2 (stereo not drawn) [biperiden] | reduced slightly | no statistically significant reaction | significantly reduced | visibly smaller | good compatibility | motorically more active | massive reduction | 96.4% | inhibited proliferation | inhibited proliferation of esophageal carcinoma cell lines significantly |  |  |
| CN1CCCC(CN2c3ccccc3Sc3ccccc32)C1 (stereo not drawn) [mepazine] |  | no statistically significant reaction | significantly reduced | visibly smaller |  |  | massive reduction |  | inhibited proliferation | inhibited proliferation of esophageal carcinoma cell lines significantly | 130.43 mm^3 | 97.9% |
